Data published in patent US20160243168A1, “ADOPTIVE CELL TRANSFER METHODS” (Cantex Pharmaceuticals, Inc., priority 2015, published 2016).
Read-outs that look alike come from different tables or passages of the source.

Tests used:
[1] = system: anticoagulant activity; assay: USP anticoagulant assay; format: biochemical; details: seven serial 1.2 kg batches
[2] = target: IIa (Homo sapiens, UniProt P00734+P01008); assay: anti-IIa activity assay; format: biochemical; details: seven serial 1.2 kg batches
[3] = system: bone marrow cells; assay: serial bone marrow biopsies in the AML trial; format: in vivo, human
From the text: Bone marrow biopsies were obtained in the AML trial described in Example 1.
FIGS. 2A-2C are photomicrographs of biopsies from one of the patients.

[4] = target: T1, binding of CXCL12 (SDF-1) to CXCR4 (Homo sapiens, UniProt P48061); assay: in vitro inhibition assay of CXCL12 binding to CXCR4 (plate ELISA); details: recombinant human CXCL12 coated plate, recombinant CXCR4, absorbance 450 nm
T1 construct: purchased R&D Systems (CXCL12); Abnova (CXCR4)
Procedure: Polyvinyl 96-well high bind microplates (Corning Life Sciences, Corning, N.Y.) were coated with 0.5 μg/well of recombinant human CXCL12 (R&D Systems, Minneapolis, Minn.). Plates were incubated overnight at 4° C. and washed three times with PBS-0.05% Tween-20 (PBST). Separately, a constant amount of recombinant CXCR4 (Abnova, Taipei, Taiwan, 100 μL containing 0.8 μg/mL in PBST-0.1% BSA) was incubated with an equal volume of serially diluted ODSH (0.001-1,000 μg/mL in PBST-BSA) overnight at 4° C. The following day, 50 μL of CXCR4-ODSH mix was transferred to each respective CXCL12-coated well and incubated at 37° C. for 2 h. Wells were then washed four times with PBST. To detect bound CXCR4, 50 μL of a mouse anti-human CXCR4 antibody (R&D Systems, Minneapolis, Minn.) (1 μg/mL, in PBST) was added to each well, the mixture was incubated for 1 h at room temperature, and the wells were washed again four times with PBST. Horse-radish peroxidase-conjugated secondary antibody (R&D Systems, Minneapolis, Minn.) (50 μL per well) was added, wells were incubated for 1 h at room temperature, and then washed once with PBST. […] Absorbance at 450 nm was read using an automated microplate reader. IC50 values were determined from the plot of absorbance values vs. concentrations of ODSH.

[5] = system: Xa; assay: anti-Xa activity assay (plasma treated with Russell viper venom); format: biochemical; details: seven serial 1.2 kg batches
From the text: Another measure of ODSH's anticoagulant activity is its anti-Xa activity which can be determined in an assay carried out using plasma treated with Russell viper venom.

[6] = system: patients with newly diagnosed acute myeloid leukemia (AML); assay: single arm open-label clinical study, induction chemotherapy plus ODSH; format: in vivo, human
Procedure: A single arm open-label clinical study was conducted at multiple trial sites (University of Utah, Georgia Regents University, and Medical University of South Carolina) in patients with newly diagnosed acute myeloid leukemia (AML), seeking to confirm that ODSH could accelerate platelet and white blood cell (WBC) recovery in patients receiving induction chemotherapy with a regimen known to have myelosuppressive side effects.
All patients received the following standard (“7+3”) induction regimen, • Idarubicin (12 mg/m^2/day) by short intravenous infusion on Days 1, 2, and 3; and • Cytarabine (100 mg/m^2) as a continuous intravenous infusion over 24 hours (Days 1 through 7).
All patients also received ODSH as an intravenous bolus immediately after the idarubicin dose on Day 1, at a dose of 4 mg/kg, followed by a continuous intravenous infusion at a dose of 0.25 mg/kg/hr for a total of 7 days (Days 1 through 7).
Twelve patients were enrolled. The median age was 56 (range 22-74). Based on cytogenetic, molecular, or antecedent hematologic disorder, 9 of 12 patients fell into the intermediate or poor risk categories. […] Complete remission at the end of the induction cycle was assessed using International Working Group (IWG) criteria (see, e.g., Cheson et al., J. Clin. Oncol. 21:4642 (2003)). […]

[7] = system: Xa; details: Rao et al. 2010; cited from earlier work

T1 sequence (P48061 22-89 limits assumed): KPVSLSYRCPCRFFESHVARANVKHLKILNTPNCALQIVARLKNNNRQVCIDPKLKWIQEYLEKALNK

2-O, 3-O desulfated heparin [ODSH]
USP anticoagulant activity [1]: 7±0.3 U/mg | anti-IIa activity [2]: 1.2±0.1 U/mg | bone marrow biopsy appearance ([3]; Day 14 of the induction cycle, one patient): unexpected and significant depletion of normal bone marrow cells | bone marrow biopsy appearance ([3]; Day 28, one patient): no evidence of leukemia and restoration of normal bone marrow appearance and function | IC50 for inhibition of binding of CXCL12 (SDF-1) to CXCR4 [4]: 0.010 µg/mL | anti-Xa activity [5]: 1.9±0.1 U/mg | myelosuppressive side effects of the idarubicin+cytarabine regimen ([6]; AML patients): significantly attenuated | Complete response with first induction cycle ([6]; current study, n = 12, morphologic complete remission by IWG criteria): 92%

unfractionated heparin [reference compound]
USP anticoagulant activity [1]: 165-190 U/mg | anti-IIa activity [2]: 165-190 U/mg | anti-Xa activity [5]: 165-190 U/mg | anti-Xa activity [7]: 165-190 U/mg
